Measured values taken from a melting point compilation (Tetko et al.; mined from patent text by program, amines drawn as free bases though some values may be those of a salt).

| Compound | melting point |
| --- | --- |
| O=c1cc(-c2ccc(O)c(F)c2)oc2ccccc12 | 275 to 276 °C |
| O=C1CSC(c2cccc(Cl)c2)c2cc(C(=O)c3ccc(Cl)cc3)ccc2N1 (stereo unspecified) | 222 °C |
| CCn1cnc2c(=O)[nH]c(N)nc21 | > 300 °C |
| COC(=O)C1CCC(=O)N1C(=O)Nc1ccccc1 (stereo unspecified) | 91 to 92 °C |
| CCCCOc1ccccc1Nc1ncc(C(=O)O)c(=O)[nH]1 | 212 to 214 °C |
| Oc1ccc(C2=NCCCO2)cc1 | 196 to 198 °C |
| N#Cc1ccsc1N=Cc1cccs1 | 58 to 60 °C |
| CCCCCCCCCCCCCCOc1ccc(N)cc1OCCCCCCCCCCCCCC | 55 to 58 °C |
| CC(C)COc1ccc(COc2ccc(CC(=O)O)cc2Cl)cc1Cl | 128 to 129 °C |
| Cn1c(=O)ccc2cnc(N3CCC[C@H]3CO)nc21 | 143 to 144 °C |
| O=C(O)c1nc2c(=O)[nH]c3cc(C(F)(F)F)ccc3n2c1CNc1ccc2c(c1)OCO2 | > 250 °C |
| N#Cc1cccc(-c2nc(N)cc3cccnc23)c1 | 102 to 104 °C |
| CN(C)CCCOc1ccc2c(c1)SCC(=O)N2 | 120 to 121 °C |
| O=C(CCCCCOc1ccccc1)c1ccccc1 | 53.5 to 54.5 °C |
| CCN(CC)C(=O)COC(=O)c1cccc(NC(=O)C(CS)Cc2ccccc2)c1 (stereo unspecified) | 160 to 163 °C |
| COc1nc(Cl)c(C(C)C)c(OC)n1 | 23 to 24 °C |
| Cc1ccc(NC(=O)c2cccc(C(F)(F)F)c2)cc1-c1ccc2ccncc2c1 | 148 to 152 °C |
| COc1ccc2c3c([nH]c2c1)C(=O)N=NC3=O | > 260 °C |
| Cc1cccc2c1-n1cnnc1SC2 | 234 °C |

| Compound | melting point |
| --- | --- |
| Cc1ccc(C(=O)N(C(C)C)C(C)C)c(F)c1C1=NC(C)(C(C)C)C(=O)N1 (stereo unspecified) | 205 to 210 °C |
| CCn1c2cc(C=O)ccc2c2ccc3ccccc3c21 | 138 to 139 °C |
| Cc1cc(C2CC2)nc(N)n1 | 113 to 115 °C |
| CC(O)C(NC(=O)OC(C)(C)C)C(=O)OCC(=O)c1ccccc1 (stereo unspecified) | 114 °C |
| C=C(CCC(C)C1CCC2C3=C(C(=O)CC21C)C1(C)CCC(=O)C(C)C1CC3O)C(C)C(=O)OC (stereo unspecified) | 100 to 101 °C |
| O=C(Nc1ccc2ccc(-c3cccc(Br)c3)nc2n1)c1cccc(Br)c1 | 144 to 146 °C |
| CCOC(=O)c1cc(F)c(SC)nc1NC1CC1 | 67 to 69 °C |
| N#CC(C#N)=C1CC=CO1 | 194 to 196 °C |
| C=C1CN(c2c(F)cc3c(=O)c(C(=O)O)cn(C4CC4)c3c2F)CC1NC (stereo unspecified) | 239 to 243 °C |
| CCO/C(=N/OC(C)=O)C1Cc2cc(C(=O)c3ccccc3F)c(O)c(Cl)c2O1 (stereo unspecified) | 111 to 112 °C |
| CCOC(=O)c1cnc2ccc(CC)cc2c1O | > 260 °C |
| O=C1Nc2cccc(F)c2C(=O)N2CC=C[C@@H]12 | 238 to 240 °C |
| O=C(Cc1ccccc1)N1C[C@@H]2SCCC(c3ccccc3)(c3ccccc3)[C@@H]2C1 (racemic) | 210 °C |
| NCCn1c(NC2CCN(Cc3ccccc3)CC2)nc2cccnc21 | 102 °C |
| COC(=O)c1cc(C(=O)NC(C)C(=O)OC)c2ccc(Cc3ccc(F)cc3)nc2c1O (stereo unspecified) | 157 to 158 °C |
| CC1(C)CCC(C)(C)C1C(=O)O | 114 °C |
| Cc1ccc2cc(CCCc3ccncc3)c(=O)n(-c3cccc([N+](=O)[O-])c3)c2n1 | 165 to 166 °C |
| CCn1cc(-c2c(-c3ccc(F)cc3)nn3ccncc23)ccc1=O | 165 to 166 °C |

Second part, the compound after the results:

| melting point | Compound |
| --- | --- |
| 164 to 166 °C | C=CCc1c(O)ccc2oc(C(=O)c3ccc(F)cc3)c(C)c12 |
| 100 to 103 °C | Fc1cccc(F)c1-c1ccc2cccnc2n1 |
| 55 to 60 °C | COC1CC(NC(=O)C(F)(F)F)C(OC)C(C)O1 (stereo unspecified) |
| 66.2 to 67.1 °C | C=CCOC(=O)CCC(NC(=O)OCC1c2ccccc2-c2ccccc21)C(=O)OCc1ccccc1 (stereo unspecified) |
| 85 to 86 °C | O=[N+]([O-])c1cc(Cl)c(Cl)cc1NC1C=CCC1 (stereo unspecified) |
| 202 to 205 °C | CC(C)c1cccc(C(C)C)c1NC(=O)CS(=O)(=O)Nc1c(C(C)C)cccc1C(C)C |
| 119 to 121 °C | O=c1c2ccccc2cc(-c2ccc(F)cc2)n1CCF |
| 226 to 227 °C | Cc1nc2n(c1C)N=C(c1ccc(N)cc1)c1cc3c(cc1C2)OCO3 |
| 154 to 156 °C | Cc1ccc(-c2cn(C)cc(-c3cccc(C(F)(F)F)c3)c2=O)cc1 |
| 158 to 160 °C | O=C1CC(C(O)(c2ccc(F)cc2)c2ccc(F)cc2)CN1Cc1ccccc1 (stereo unspecified) |
| 193 to 195 °C | O=C=Nc1ccc(OC(=O)CCC(=O)Oc2ccc(N=C=O)cc2)cc1 |
| 102 to 105 °C | COc1ccc(C(C#N)=Cc2ccc(OC)c(OC3CCCC3)c2)cc1 |
| 202 to 204 °C | CC1NC(=O)NN=C1c1ccc(S)cc1 (stereo unspecified) |
| 171 to 175 °C | CNC(=O)c1cccc(Cl)c1Nc1nc(Nc2ccc3c(c2)CCC(N2CCC(N4CCN(C)CC4)CC2)CC3)ncc1Cl (stereo unspecified) |
| 115 °C | CCCCC(=O)NC(C(=O)OCC)=C(N)Sc1ccccc1 |
| 147 to 149 °C | COc1ccc2c3c(c(=O)oc2c1)CN(Cc1ccc(C)cc1)CC3 |
| 109 to 111 °C | COc1ccc(C2CCN(C(=O)/C(=N/O)C(N)=O)CC2)cc1OC1CCCC1 |
| 76 to 77 °C | CCN(CC)C(=O)n1ccc(S(=O)(=O)c2cccc(Cl)c2C)n1 |
| 71 to 71.9 °C | CC(C)(C)OC(=O)CCOCCCc1cccc(-c2nc(=O)c3ccccc3s2)n1 |
| 81 to 84 °C | COc1ccc(-c2cc(C)c(N)c(C=O)c2)cn1 |

| melting point | Compound |
| --- | --- |
| 175 °C | O=c1c2cnc3ccc(C(F)(F)F)cc3c2on1-c1ccccc1 |
| 134 to 136 °C | CC1(O)OC(=O)C(c2c(F)cc(F)cc2F)=C1c1cccs1 (stereo unspecified) |
| 262 to 264 °C | NC(=O)c1cc(-c2ccc3nnn(Cc4ccc5ncccc5c4)c3n2)ccc1F |
| 118 to 119 °C | O=C(O)CP(=O)(O)CCCc1ccccc1 |
| 172 to 174 °C | COCCOc1ccc2c(c1)OCC21C(=O)Nc2ccccc21 (stereo unspecified) |
| 164 °C | CNC(=O)COc1ccc2c(-c3ccccc3F)noc2c1Cl |
| 262 to 268 °C | Cc1ccnc2ccc(Cc3cnc(N)nc3N)cc12 |
| 77 to 79 °C | CCOc1cc(C(=O)OC)on1 |
| 110 °C | CON(C)C(=O)c1ccc2nc(Cl)nc(-c3cccc(Cl)c3)c2c1 |
| 144 to 145 °C | CSc1nnc(Sc2cc(C(C)(C)C)c(O)c(C(C)(C)C)c2)s1 |
| 139 to 140 °C | C=C(C)c1ccccc1N1CCN(C(=O)Nc2cc(C)c(C)nc2OC)CC1 |
| 234 to 235 °C | Cc1cc(-c2nc3cccnn3c2-c2ccnc(NC(=O)c3ccccn3)c2)ccc1F |
| > 220 °C | C(=Cc1ccc2c(n1)[nH]c1ccccc12)c1ccccc1 |
| 93 to 95 °C | CON(C)C(=O)Nc1ccc(CN2OCC(C)(C)C2=O)c(Cl)c1 |
| 180 to 182 °C | Cc1cncc2cc(S(N)(=O)=O)oc12 |
| 67 to 71 °C | Nc1sc2c(c1C(=O)c1ccccn1)CCN(Cc1ccccc1)C2 |
| > 300 °C | O=c1nc(-c2ccc3c(c2)OCO3)c2cc3c(cc2[nH]1)OCO3 |
| 66 to 67.5 °C | COC(=O)c1cncn1C1c2ccccc2CCC1(C)C (stereo unspecified) |
| 158 to 160 °C | CC(=O)OC1CCC2(C)C(CCC3=C4C(=O)CC(C(C)CCCOS(=O)(=O)c5ccc(C)cc5)C4(C)CCC32)C1 (stereo unspecified) |
